Assay results published in US20070048360A1, “Pharmaceutical compositions with melting point depressant agents and method of making same” (priority 2005, published 2007).
Like-named read-outs stand apart in the source and are kept apart here.

Tests used:
[1] = cited from earlier work
[2] = oral; cited from earlier work
[3] = Aqueous blending of bulk powdered CFI and active drug, visual and microscopic check; format: physicochemical

SMILES: c1ccc2c(c1)CC1COCOC21 (stereo not drawn) [Indeno-m-dioxin tetrahydro]
- Log P [1]: Log P: 1.33

SMILES: NCCCC(O)(P(=O)(O)O)P(=O)(O)O [sodium alendronate]
- fraction of the drug absorbed when administered orally [2]: about 0.6%

SMILES: CCCN(CCC)CCc1cccc2c1CC(=O)N2 [ROP, Ropinirole]
- aspect of composition API:PES 1:1 in ethanol/purified water ([3]; 15% ethanol): stable oil droplets
- ethanol content of hydro-alcoholic mixture needed to solubilize the drug (drug 1% w/w): at least 40 % by weight of the total mixture

SMILES: CC(C)Cc1ccc(C(C)C(=O)O)cc1 (stereo not drawn) [Ibuprofen, ibuprofen]
- ethanol content of hydro-alcoholic mixture needed to solubilize the drug (drug 1% w/w): at least 50 % by weight of the total mixture

SMILES: O=C(OCCc1ccccc1)c1ccccc1O [Phenyl ethyl salicylate]
- Log P [1]: Log P: 4.31

SMILES: CN1C2CCCC1CC(NC(=O)c1nn(C)c3ccccc13)C2 (stereo not drawn) [GRA, Granisetron]
- aspect of composition API:PES 1:1 in ethanol/purified water ([3]; 30% ethanol): stable oil droplets
- ethanol content of hydro-alcoholic mixture needed to solubilize the drug (drug 0.5% w/w): at least 40 % by weight of the total mixture

SMILES: C[C@]12CC[C@H]3[C@@H](CCC4=CC(=O)CC[C@@]43C)[C@@H]1CC[C@@H]2O [TES, Testosterone]
- aspect of composition API:PES 1:1 in ethanol/purified water [3]: stable oil droplets

SMILES: COc1ccccc1OCCNCC(O)COc1cccc2[nH]c3ccccc3c12 (stereo not drawn) [CAR, Carvedilol]
- aspect of composition API:PES 1:1 in ethanol/purified water ([3]; 30% ethanol): stable oil droplets
- ethanol content of hydro-alcoholic mixture needed to solubilize the drug (drug 1% w/w): at least 80 % by weight of the total mixture

SMILES: CC(=O)CCc1ccc2c(c1)OCO2 [4-(1,3-benzodioxol-5-yl)butan-2-one]
- Log P [1]: Log P: 1.15

SMILES: Clc1cccc(Cl)c1N=C1NCCN1 [CLO, clonidine]
- aspect of composition API:PES 1:1 in ethanol/purified water ([3]; 5% ethanol): stable oil droplets
- aspect of composition API:PES 1:1 in ethanol/purified water ([3]; 10% ethanol): stable oil droplets
- ethanol content of hydro-alcoholic mixture needed to solubilize the drug (drug 0.5% w/w): at least 50 % by weight of the total mixture

SMILES: CCN(CC)CC#CCOC(=O)C(O)(c1ccccc1)C1CCCCC1 (stereo not drawn) [OXY, oxybutynin]
- aspect of composition API:PES 1:1 in ethanol/purified water ([3]; 30% ethanol): small transparent droplets easily re-suspended

SMILES: CCN(CC)CC(=O)Nc1c(C)cccc1C [Lidocaine, lidocaine]
- storage period over which aspect (transparent droplets, no crystallization) was maintained ([3]; lidocaine 2.50% w/w and PES 2.50% w/w in water, ambient temperature in the dark): > 13 month

SMILES: CC(C)(C)C1CCCCC1O (stereo not drawn) [Ortho tertiary butyl cyclohexanol]
- Log P [1]: Log P: 3.3-3.4
